Measured values reported in ChEMBL document CHEMBL1201862, “PubChem BioAssay data set” (2004).
Active and inactive are the calls of the source. Starred links: 1 amine or outer side, 2 acyl side, 3 side chain; linkers in the order of their positions; H or OH if unused. Positions of bridges follow the written chain, without caps; N, C: chain ends. Non-standard residues stand in square brackets, D forms with d. Residues, ends and D or L forms follow the SMILES beside them. Chains are numbered I, II in the order given. Actinocin(1to9) = Cc1c2oc3c(C)ccc(C(=O)[*:2])c3nc-2c(C(=O)[*:1])c(N)c1=O; aThr = C[C@H](O)[C@H](N)C(=O)O; NMeV = CN[C@H](C(=O)O)C(C)C; Sar = CNCC(=O)O

Experiments:
P388/ADR = assay: cells; assay type: functional
P388 = assay: cells; assay type: functional
SN12K1 = assay: cells; assay type: functional
Cytochrome P450 3A4 = Cytochrome P450 3A4 (Homo sapiens, UniProt P08684);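 also: CYP3A4 tested as one member of a cytochrome P450 panel screen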
Cytochrome P450 3A4, sequence (P08684 whole entry): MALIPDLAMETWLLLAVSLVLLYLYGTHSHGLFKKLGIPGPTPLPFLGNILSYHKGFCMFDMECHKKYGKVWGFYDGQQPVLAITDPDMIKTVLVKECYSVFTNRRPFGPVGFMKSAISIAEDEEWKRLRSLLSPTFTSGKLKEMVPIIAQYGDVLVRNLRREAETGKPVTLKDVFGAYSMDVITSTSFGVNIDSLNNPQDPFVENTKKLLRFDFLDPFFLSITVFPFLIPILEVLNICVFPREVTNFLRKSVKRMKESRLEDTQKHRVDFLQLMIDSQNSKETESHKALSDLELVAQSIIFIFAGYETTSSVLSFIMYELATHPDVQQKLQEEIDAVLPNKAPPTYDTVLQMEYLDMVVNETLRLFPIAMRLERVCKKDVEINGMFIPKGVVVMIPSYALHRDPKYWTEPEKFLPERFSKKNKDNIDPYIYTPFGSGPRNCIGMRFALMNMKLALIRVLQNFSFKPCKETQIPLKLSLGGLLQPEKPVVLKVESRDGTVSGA

[1] = biological target: Luciferin 4-monooxygenase (Photinus pyralis, UniProt P08659); assay: inhibition of purified Photinus pyralis luciferase – biochemical, luminescence, dose response (AID 1891)
Luciferin 4-monooxygenase, sequence (P08659 whole entry): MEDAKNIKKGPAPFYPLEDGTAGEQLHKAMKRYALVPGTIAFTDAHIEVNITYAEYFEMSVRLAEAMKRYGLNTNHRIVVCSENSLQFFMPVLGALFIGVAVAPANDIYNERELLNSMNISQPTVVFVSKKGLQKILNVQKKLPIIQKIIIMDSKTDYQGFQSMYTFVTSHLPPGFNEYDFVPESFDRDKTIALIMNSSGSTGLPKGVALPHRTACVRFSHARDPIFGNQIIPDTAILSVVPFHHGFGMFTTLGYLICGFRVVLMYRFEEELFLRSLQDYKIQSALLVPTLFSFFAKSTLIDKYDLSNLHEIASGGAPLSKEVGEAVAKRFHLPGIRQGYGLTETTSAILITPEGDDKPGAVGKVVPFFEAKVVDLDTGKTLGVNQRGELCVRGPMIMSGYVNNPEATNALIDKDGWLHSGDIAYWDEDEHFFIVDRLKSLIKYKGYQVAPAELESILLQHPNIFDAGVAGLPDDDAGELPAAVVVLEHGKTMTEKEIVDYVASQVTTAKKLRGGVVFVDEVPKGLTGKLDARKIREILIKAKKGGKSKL

[2] = Luminescence Cell-Based Dose Confirmation HTS to Identify Inhibitors of Platelet Dense Granule Release. [Related pubchem assays: 1663 (Primary HTS), 1678 (Summary of Project)]; assay type: functional
[3] = NIH-3T3 fibroblast cytotoxicity, dose response, cytotoxicity control, cell-based, fluorescence, Alamar Blue, secondary assay (AID 2327); assay type: functional;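 also: NIH-3T3 mouse fibroblasts cultured with fluconazole at 8 µg/mL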
[4] = fluconazole-exposed Candida albicans growth modulators – fluorescence, retest, confirmation (AID 2467); assay type: functional, cell-based
Cytochrome P450 2D6 = Cytochrome P450 2D6 (Homo sapiens, UniProt P10635);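 also: CYP2D6 member of a cytochrome P450 panel assay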
Cytochrome P450 2D6, sequence (P10635 whole entry): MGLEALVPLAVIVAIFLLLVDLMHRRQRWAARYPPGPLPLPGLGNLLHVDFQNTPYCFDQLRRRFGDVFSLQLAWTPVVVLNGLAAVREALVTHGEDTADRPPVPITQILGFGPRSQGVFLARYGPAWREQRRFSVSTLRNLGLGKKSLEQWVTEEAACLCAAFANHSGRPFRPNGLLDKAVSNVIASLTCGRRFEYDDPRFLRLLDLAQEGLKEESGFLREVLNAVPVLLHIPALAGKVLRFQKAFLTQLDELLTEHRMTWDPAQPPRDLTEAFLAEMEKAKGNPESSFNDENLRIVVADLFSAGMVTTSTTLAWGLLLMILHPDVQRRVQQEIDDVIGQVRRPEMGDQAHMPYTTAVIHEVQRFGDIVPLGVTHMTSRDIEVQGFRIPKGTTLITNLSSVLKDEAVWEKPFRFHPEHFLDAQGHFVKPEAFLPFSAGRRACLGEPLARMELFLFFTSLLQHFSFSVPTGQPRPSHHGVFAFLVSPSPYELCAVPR

[5] = biological target: T1, Microphthalmia-associated transcription factor (Homo sapiens, UniProt O75030); assay: reducers of TRPM1 reporter luminescence, concentration series – cell-based, SK-MEL-5, cherry-picked, set 3, MITF inhibitor project, dose response (AID 493073); assay type: functional;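 also: SK-MEL-5 melanoma cells with luciferase driven by the MITF target TRPM1 promoter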
T1 sequence (O75030 whole entry): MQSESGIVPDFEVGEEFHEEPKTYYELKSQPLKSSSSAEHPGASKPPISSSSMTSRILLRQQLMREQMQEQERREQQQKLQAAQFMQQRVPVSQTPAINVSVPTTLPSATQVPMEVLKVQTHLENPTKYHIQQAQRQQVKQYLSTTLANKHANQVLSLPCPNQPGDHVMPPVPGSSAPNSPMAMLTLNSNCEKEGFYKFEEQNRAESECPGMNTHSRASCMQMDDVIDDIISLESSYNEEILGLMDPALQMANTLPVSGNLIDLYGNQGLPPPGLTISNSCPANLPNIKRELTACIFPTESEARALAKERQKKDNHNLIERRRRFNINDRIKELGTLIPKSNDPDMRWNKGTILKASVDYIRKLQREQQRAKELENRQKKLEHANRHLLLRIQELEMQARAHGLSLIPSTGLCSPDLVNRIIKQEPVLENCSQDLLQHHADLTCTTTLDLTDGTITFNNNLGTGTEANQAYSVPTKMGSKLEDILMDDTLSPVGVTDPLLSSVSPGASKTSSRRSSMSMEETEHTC

Streptokinase A = biological target: T2, Streptokinase A (Streptococcus pyogenes serotype M1, UniProt P10520); assay: viability-normalized secreted streptokinase activity reduction – plasminogen activation absorbance, OD405, dose response (AID 1914); assay type: functional, Streptococcus pyogenes M1 GAS;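 also: secreted streptokinase activity via plasminogen activation per viability signal from cell pellet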
T2 sequence (P10520 whole entry): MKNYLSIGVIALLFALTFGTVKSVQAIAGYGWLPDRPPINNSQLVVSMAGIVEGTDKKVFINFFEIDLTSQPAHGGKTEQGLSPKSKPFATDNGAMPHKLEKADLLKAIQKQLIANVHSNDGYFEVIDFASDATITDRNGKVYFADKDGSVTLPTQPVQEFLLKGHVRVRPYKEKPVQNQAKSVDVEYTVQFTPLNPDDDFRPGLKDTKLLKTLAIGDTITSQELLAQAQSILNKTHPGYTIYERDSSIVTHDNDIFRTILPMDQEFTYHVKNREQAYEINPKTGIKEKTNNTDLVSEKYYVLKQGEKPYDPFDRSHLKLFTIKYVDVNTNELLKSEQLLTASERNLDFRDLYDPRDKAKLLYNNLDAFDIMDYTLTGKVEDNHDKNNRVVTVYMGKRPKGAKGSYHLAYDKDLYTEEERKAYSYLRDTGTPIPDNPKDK

[6] = test system: Streptococcus sp. 'group A'; assay: Streptococcus pyogenes SK(-)GAS viability under kanamycin – luminescence, BacTiterGlo, confirmation, counter-screen for streptokinase expression inhibitor project, dose response (AID 1900); assay type: functional, organism-based
Streptococcus = assay: GAS UMAA2166 growth inhibition – luminescence, BacTiterGlo, counter-screen for streptokinase expression inhibitor project, dose response (AID 1915); assay type: functional, organism-based;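 also: potency for reduction of bacterial viability or growth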
Cytochrome P450 2C9 = Cytochrome P450 2C9 (Homo sapiens, UniProt P11712)
Cytochrome P450 2C9, sequence (P11712 whole entry): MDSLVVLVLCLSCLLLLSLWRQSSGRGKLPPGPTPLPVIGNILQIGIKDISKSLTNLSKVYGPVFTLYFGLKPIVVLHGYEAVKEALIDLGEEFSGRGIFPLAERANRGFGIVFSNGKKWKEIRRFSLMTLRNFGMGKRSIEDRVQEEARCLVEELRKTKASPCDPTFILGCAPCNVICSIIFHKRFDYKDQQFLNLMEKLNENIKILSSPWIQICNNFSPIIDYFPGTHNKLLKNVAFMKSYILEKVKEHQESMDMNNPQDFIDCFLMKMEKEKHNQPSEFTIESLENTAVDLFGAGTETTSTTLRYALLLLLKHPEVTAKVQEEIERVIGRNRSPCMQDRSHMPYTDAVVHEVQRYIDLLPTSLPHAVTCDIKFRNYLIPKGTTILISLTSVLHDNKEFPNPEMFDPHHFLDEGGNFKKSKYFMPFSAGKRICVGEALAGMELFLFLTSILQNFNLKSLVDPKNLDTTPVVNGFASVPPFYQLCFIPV

Cytochrome P450 2C19 = Cytochrome P450 2C19 (Homo sapiens, UniProt P33261); assay: Cytochrome panel assay with activity outcomes. Panel member name: p450-cyp2c19 Compounds with AC50 equal or less than 10 uM are considered active; assay type: functional; conditions: read-out: AC50
Cytochrome P450 2C19, sequence (P33261 whole entry): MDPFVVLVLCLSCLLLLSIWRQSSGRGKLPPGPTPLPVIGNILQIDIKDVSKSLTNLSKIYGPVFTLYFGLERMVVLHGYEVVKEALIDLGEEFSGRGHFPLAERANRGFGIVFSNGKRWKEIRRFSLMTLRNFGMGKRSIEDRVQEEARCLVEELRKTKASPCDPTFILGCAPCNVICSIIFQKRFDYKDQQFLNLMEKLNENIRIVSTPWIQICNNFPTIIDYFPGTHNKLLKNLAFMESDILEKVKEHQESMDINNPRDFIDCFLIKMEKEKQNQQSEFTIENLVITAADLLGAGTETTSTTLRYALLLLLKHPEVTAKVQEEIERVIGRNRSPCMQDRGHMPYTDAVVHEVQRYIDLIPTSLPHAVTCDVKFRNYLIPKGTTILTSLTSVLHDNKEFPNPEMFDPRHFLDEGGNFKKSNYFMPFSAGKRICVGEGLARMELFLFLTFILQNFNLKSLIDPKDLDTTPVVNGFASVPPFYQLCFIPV

CCOC(=O)c1c(C)c2c(n1C)CCc1c[nH]nc1-2
GI50 (P388/ADR; Mus musculus, P388/ADR): > 31.6 µM (inactive) | GI50 (P388; Mus musculus, P388): > 100 µM (inactive) | GI50 (SN12K1; Homo sapiens, SN12K1): > 100 µM (inactive)

CO[C@@H]1/C=C\CC(=O)N[C@@H](C)C(=O)OC[C@H](NS(=O)(=O)c2ccc(C)cc2)[C@H](C)/C=C\CC(=O)OC[C@H]1C
AC50 (Cytochrome P450 3A4): 3.98 µM (inconclusive)

Cc1c2oc3c(C)ccc(C(=O)N[C@@H]4C(=O)N[C@H](C(C)C)C(=O)N5CCC[C@H]5C(=O)N(C)CC(=O)N(C)[C@@H](C(C)C)C(=O)O[C@H]4C)c3nc-2c(C(=O)N[C@@H]2C(=O)N[C@H](C(C)C)C(=O)N3CCC[C@H]3C(=O)N(C)CC(=O)N(C)[C@@H](C(C)C)C(=O)O[C@H]2C)c(N)c1=O (I: [aThr][dV]P[Sar][NMeV] / II: [aThr][dV]P[Sar][NMeV]; ester I:1-I:C, II:1-II:C; linker I:N-II:N via Actinocin(1to9))
GI50 (P388/ADR; Mus musculus, P388/ADR): 0.00442 µM (active) | GI50 (P388; Mus musculus, P388): 0.00025 µM (active) | GI50 (SN12K1; Homo sapiens, SN12K1): 0.000337 µM (active)

CCC(CC)C(=O)Nc1ccc(C)c(O)c1
AC50 (Cytochrome P450 3A4): 4.47 µM (inconclusive)

C=CC1(C)CC(=O)C2(O)C(C)(O1)C(OC(C)=O)C(O)C1C(C)(C)CCC(O)C12C (stereo not given)
GI50 (P388/ADR; Mus musculus, P388/ADR): 43.9 µM (inactive) | GI50 (P388; Mus musculus, P388): 56.4 µM (inactive) | GI50 (SN12K1; Homo sapiens, SN12K1): 65.3 µM (inactive)

CCOC(=O)Cn1c(=O)n(Cc2ccco2)c(=O)c2ccc(C(=O)NC3CCCC3)cc21
EC50 [1]: > 112 µM (not active) | EC50 [2]: 13.8 µM (active)

Cn1c(=O)c(C(=O)NCCc2ccccc2)c(O)c2ccccc21
EC50 [3]: > 150 µM (inactive) | EC50 [4]: > 38 µM (not active)

Cc1ccc(C(=O)/C=C/c2c[nH]c3ccccc23)cc1
AC50 (Cytochrome P450 3A4): 25.1 µM (inconclusive) | AC50 (Cytochrome P450 2D6): 22.4 µM (inconclusive)

Cn1nnnc1Sc1ncnc2scc(-c3cccs3)c12
AC50 [5]: 7 µM (active)

C/C(=N\NC(=O)C1CCCC1)c1ccc(Cl)c(Cl)c1
EC50 [3]: > 150 µM (inactive) | EC50 [4]: > 38 µM (not active)

Cc1noc(C)c1C(=O)N1CCC2(CCCN(Cc3ccccc3)C2)CC1
AC50 (Cytochrome P450 3A4): 25.1 µM (inconclusive)

CC(C)CN1CC[C@@]2(CCCN(C(=O)c3cnccn3)C2)C1
AC50 (Cytochrome P450 3A4): 15.8 µM (inconclusive)

CC12CCC(CC1)C(C)(C)O2 [EUCALYPTOL]
EC50 (Streptokinase A): > 150 µM (not active) | GI50 (P388/ADR; Mus musculus, P388/ADR): 8.17 µM (inactive) | EC50 [6]: > 150 µM (not active) | EC50 (Streptococcus): > 150 µM (not active) | GI50 (P388; Mus musculus, P388): 9.1 µM (inactive) | GI50 (SN12K1; Homo sapiens, SN12K1): 21.9 µM (inactive)

O=C(/C=C/c1ccccc1)NCC1(c2ccccc2)CCOCC1
EC50 [1]: > 112 µM (not active) | EC50 [2]: > 112 µM (not active)

COC(=O)N1CCC[C@@]2(CCN(C(=O)Nc3ccc(OC)cc3)C2)C1
AC50 (Cytochrome P450 3A4): 10 µM (inconclusive) | AC50 (Cytochrome P450 2C9): 20 µM (inconclusive)

COC(C(=O)C(O)C(C)O)C1Cc2cc3cc(OC4CC(OC(C)=O)C(OC5CC(O)C(OC)C(C)O5)C(C)O4)cc(O)c3c(O)c2C(=O)C1OC1CC(OC2CC(OC3CC(C)(O)C(OC(=O)C(C)C)C(C)O3)C(O)C(C)O2)C(O)C(C)O1 (stereo not given)
GI50 (P388/ADR): 5.12 µM (inactive) | GI50 (P388/ADR; Mus musculus, P388/ADR): 5.98 µM (inactive) | GI50 (P388): 0.0075 µM (active) | GI50 (P388; Mus musculus, P388): 0.0123 µM (active) | GI50 (SN12K1): 0.00895 µM (active) | GI50 (SN12K1; Homo sapiens, SN12K1): 0.01 µM (active)

O=C(c1ccncc1)N1CCC[C@@]2(CCN(c3ncccn3)C2)C1
AC50 (Cytochrome P450 2C19): 25.1 µM (inconclusive) | AC50 (Cytochrome P450 3A4): 15.8 µM (inconclusive) | AC50 (Cytochrome P450 2C9): 20 µM (inconclusive)

C[C@@H]1CCCN(CP(=O)(c2ccccc2)c2ccccc2)C1
AC50 (Cytochrome P450 2C19): 0.126 µM (inconclusive) | AC50 (Cytochrome P450 3A4): 3.98 µM (inconclusive)

Oc1c(Cl)cccc1/C=N/c1cc(C(F)(F)F)ccc1N1CCCC1
EC50 [1]: > 112 µM (not active) | EC50 [2]: > 112 µM (not active)
